The record followed here is PubChem BioAssay (NCI).

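Cells were grown in 96-well plates and exposed to each compound for 48 hours at five concentrations; endpoints were interpolated linearly between bracketing concentrations, or set to the highest concentration if not reached. Abbreviation: GI50, concentration required for 50% inhibition of growth. TGI denotes the concentration required for complete inhibition of growth.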

Some test systems named below: HS 578T breast; RXF-631 renal; LXFL 529 NSCLC; M19-MEL melanoma; T-47D breast; DMS 114 small cell lung; MDA-MB-435; KM20L2 colon; DU-145 prostate; HOP-18 NSCLC; MDA-MB-231 breast.
What all share (assay): growth of human tumour cells (NCI), 48 h

As to `CCC1(O)C(=O)OCc2c1cc1n(c2=O)Cc2cc3c(N)cccc3nc2-1` (stereo not drawn), the TGI came to 22.8 µM in the assay on HS 578T breast; 1620 nM in the assay with RXF-631 renal; 4.71 µM in the assay with LXFL 529 NSCLC; 1290 nM in the assay on M19-MEL melanoma; 654 nM in the assay with T-47D breast; 504 nM with DMS 114 small cell lung. In addition, the TGI in the assay on MDA-MB-435 was determined as 2880 nM; with KM20L2 colon, 20.5 µM; in the assay with DU-145 prostate it was 250 nM; with HOP-18 NSCLC it was 903 nM; in the assay with MDA-MB-231 breast, 14.2 µM. Also, the results for the GI50 with LXFL 529 NSCLC and in the assay with T-47D breast were 307 nM and 19.1 nM, respectively.
